Laboratory results from paper PMC9894226 (Proceedings of the National Academy of Sciences of the …, 2022).
Non-standard residues stand in square brackets, D forms with d. Residues, ends and D or L forms follow the SMILES beside them. Nle = CCCC[C@H](N)C(=O)O

Tests used:
[1] = pH 7.4; ref [67]; cited from earlier work
C. elegans CL2355 = assay: Chemotaxis assay in transgenic C. elegans; format: in vivo, Caenorhabditis elegans; details: fed 0.5, 5 and 50 μM; untreated CL2355 0.18 ± 0.01, CL2122 0.29 ± 0.01
5xFAD mice = assay: PET/CT imaging in 5xFAD mice; format: in vivo, mouse; details: 6-mo-old 5xFAD mice, 1 h post injection

Row | Compound | Chemotaxis index (CI) of CL2355 mutants (C. elegans CL2355) | further results
1 | O=C(O)CN1CCN(CC(=O)O)CCN(CC(=O)O)CC1 [NOTA, 2,2′,2”-(1,4,7-triazacyclononane-1,4,7-triyl)triacetic acid] | – | Thermodynamic stability constant of Cu^2+ complex (log KML) [1]: 23.33
2 | CCCC[C@@H]1NC(=O)[C@@H](CC(C)C)NC(=O)[C@H](CCCCN)NC(=O)[C@@H](CO)NC(=O)[C@H](Cc2c[nH]cn2)NC(=O)[C@@H](C)NC1=O [[w4a]-1, c-(D-Leu-Nle-D-Ala-His-D-Ser-Lys)] (cyclo(H[dS]K[dL][Nle][dA])) | significantly less protective than peptide 1 | –
3 | H-[dL][Nle][dW]H[dS]K-OH [Lin-1] | significantly less protective than peptide 1 | –
4 | [11CH3]Nc1ccc(-c2nc3ccc(O)cc3s2)cc1 [^11C-PIB, ^11C-Pittsburgh compound B] | – | Hippocampal uptake (PET) (5xFAD mice): 1.038 ± 0.028 %ID/g
